In patent publication US20250325560A1, “METHODS FOR IMPROVING MUSCLE MASS, STRENGTH, OR FUNCTION WITH A COMBINATION OF TESTOSTERONE AND GROWTH HORMONE” (University of Rochester, priority 2022, published 2025):

How the values were obtained:
FSHD patients = experiment: Safety and tolerability monitoring in clinical study; assay type: in vivo, human; settings: intramuscular injection into the gluteal muscle, when properly given
Excerpt: Safety outcome measures included (1) Changes from baseline in laboratory test results, vital signs, and EKG results, (2) Occurrence of serious adverse events, and (3) Occurrence of non-serious adverse events. Exploratory efficacy outcome measures included the following: • 1. Composite Quantitative Muscle Testing (QMT) score • 2. Composite Manual Muscle Testing (MMT) score • 3. FSHD Clinical Outcome Measure (FSHD-COM), total and individual test scores • 4. FSHD-Health Index (FSHD-HI), disease-specific patient-reported outcome measure • 5. Forced Vital Capacity (FVC) • 6. Epworth Sleepiness Scale • 7. Fatigue Severity Scale • 8. Dual Energy X-Ray Absorptiometry (DEXA) Lean Body Mass (total and regional) • 9. PROMIS-57 • 10. Individualized Neuromuscular Quality of Life Questionnaire (INQoL) • 11. Beck Depression Inventory (BDI) • 12. Six minute walk distance
For safety assessments and adverse event assessments, various clinical safety Laboratory tests were carried out. For treatment-specific assessments, the subjects were monitored for the following treatment-related events: • peripheral edema • carpal tunnel syndrome • gynecomastia • insulin resistance • arthralgia • increased erythropoiesis • reduced HDL cholesterol • elevated prostate specific antigen • elevated blood pressure […]

[1] = system: adult muscular dystrophy population; settings: heterogeneous adult muscular dystrophy group with normal baseline testosterone; after 3 months of treatment; cited from earlier work
[2] = system: patients with myotonic dystrophy; settings: 40 patients with myotonic dystrophy; cited from earlier work

CCCCCCC(=O)O[C@H]1CC[C@H]2[C@@H]3CCC4=CC(=O)CC[C@]4(C)[C@H]3CC[C@]12C [testosterone enanthate, Testosterone enanthate]
Tolerability of intramuscular injections (FSHD patients): well tolerated

C[C@]12CC[C@H]3[C@@H](CCC4=CC(=O)CC[C@@]43C)[C@@H]1CC[C@@H]2O [testosterone, 17-β-hydroxyandrost-4-en-3-one]
Safety and body composition effects of testosterone in isolation [1]: safe and increase lean body mass, reduce body fat, and improve basal metabolic rate
Safety and efficacy of testosterone in isolation [2]: safe, tolerable, and able to improve both creatinine excretion and lean body mass while not statistically improving overall strength
